# Reference: US8716493B2, “Multicyclic compounds and the use thereof” (Cephalon, Inc., priority 2000, dated 2014)
# Like-named read-outs stand apart in the source and are kept apart here.
# Molecular target: recombinant human PARP (Homo sapiens, UniProt P09874)
# Experiment: Measurement of PARP enzymatic activity (transfer of radiolabeled ADP-ribose from NAD+ to protein acceptor)
# Type: biochemical
# Procedure: PARP activity was monitored by transfer of radiolabeled ADP-ribose units from [^32]NAD^+ to a protein acceptor such as histone or PARP itself. […] The reactions were initiated by the addition of 100 μM NAD^+ supplemented with 2 uCi [^32]NAD^+/mL and maintained at room temperature for 12 minutes. […] The amount of acid-insoluble radioactivity, corresponding to polyADP-ribosylated protein, was quantitated in a Wallac MicroBeta scintillation counter.
# Single-point inhibition data were calculated by comparing PARP, VEGFR2, or MLK3 activity in the presence of inhibitor to activity in the presence of DMSO only. Inhibition curves for compounds were generated by plotting percent inhibition versus log10 of the concentration of compound. IC50 values were calculated by nonlinear regression using the sigmoidal dose-response (variable slope) equation in GraphPad Prism as follows: y=bottom+(top−bottom)/(1+10^(log IC50^−x)*Hillslope) where y is the % activity at a given concentration of compound, x is the logarithm of the concentration of compound, bottom is the % inhibition at the lowest compound concentration tested, and top is the % inhibition at the highest compound concentration examined. The values for bottom and top were fixed at 0 and 100, respectively. IC50 values were reported as the average of at least three separate determinations.
# For some compounds, inhibiting data is presented as percent inhibition at a specified concentration. Compounds are tabulated together with compound number, substituents, and enzyme inhibition data.
# Sequence of recombinant human PARP (P09874 whole entry): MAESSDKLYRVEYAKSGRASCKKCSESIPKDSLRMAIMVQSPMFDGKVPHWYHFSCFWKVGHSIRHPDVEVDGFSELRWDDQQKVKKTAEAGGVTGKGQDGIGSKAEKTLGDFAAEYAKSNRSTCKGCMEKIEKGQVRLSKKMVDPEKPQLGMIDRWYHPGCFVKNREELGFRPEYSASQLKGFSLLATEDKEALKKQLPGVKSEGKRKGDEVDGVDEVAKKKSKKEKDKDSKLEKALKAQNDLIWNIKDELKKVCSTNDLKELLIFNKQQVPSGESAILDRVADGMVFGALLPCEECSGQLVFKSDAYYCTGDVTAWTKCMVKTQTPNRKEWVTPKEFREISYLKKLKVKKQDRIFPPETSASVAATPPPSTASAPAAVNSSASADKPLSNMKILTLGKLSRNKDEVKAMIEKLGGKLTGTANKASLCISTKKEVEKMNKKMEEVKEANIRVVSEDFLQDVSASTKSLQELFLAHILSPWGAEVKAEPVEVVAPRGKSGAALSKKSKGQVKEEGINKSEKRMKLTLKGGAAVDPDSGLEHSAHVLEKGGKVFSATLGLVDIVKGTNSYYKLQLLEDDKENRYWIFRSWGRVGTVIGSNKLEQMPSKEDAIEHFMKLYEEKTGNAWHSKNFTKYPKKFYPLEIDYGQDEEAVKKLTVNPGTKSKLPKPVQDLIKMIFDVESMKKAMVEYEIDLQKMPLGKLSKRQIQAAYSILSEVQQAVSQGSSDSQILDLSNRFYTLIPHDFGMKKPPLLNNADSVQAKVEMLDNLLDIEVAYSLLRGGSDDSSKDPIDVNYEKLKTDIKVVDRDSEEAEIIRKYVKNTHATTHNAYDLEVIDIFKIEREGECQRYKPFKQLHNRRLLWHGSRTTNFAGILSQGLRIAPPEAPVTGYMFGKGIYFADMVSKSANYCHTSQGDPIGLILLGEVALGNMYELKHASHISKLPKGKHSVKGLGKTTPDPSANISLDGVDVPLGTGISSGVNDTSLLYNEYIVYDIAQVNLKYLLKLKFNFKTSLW
Compound,"IC50 (Table 2, read-out: PARP IC50)",further results
CC(C)(C)OC(=O)Cc1nc(-c2ccc3[nH]c4c5c(c6c(c4c3c2)C(=O)NC6=O)CCC5)cs1 [Compound 3q],29 nM,
COc1ccc2[nH]c3c4c(c5c(c3c2c1)C(=O)NC5=O)CCC4 [Compound 2ap],32 nM,
NC(=O)c1ccc2[nH]c3c4c(c5c(c3c2c1)C(=O)NC5=O)CCC4 [Compound 2bh],31 nM,
COc1ccnc2[nH]c3c4c(c5c(c3c12)C(=O)NC5=O)CCC4 [Compound 8x],,"IC50 (Table 18, read-out: PARP IC50): 4 nM"
O=C1NC(=O)c2c1c1c(c3[nH]c4ccc(O)cc4c23)CCC1 [Compound 2ao],27 nM,
CCCCNCc1ccc2[nH]c3c4c(c5c(c3c2c1)C(=O)NC5=O)CCC4 [Compound 2bp],25 nM,
CCN(CC)C(=O)CCC(=O)c1ccc2[nH]c3c4c(c5c(c3c2c1)C(=O)NC5=O)CCC4 [Compound 4i],12 nM,
O=C1NC(=O)c2c1c1c(c3[nH]c4nc(O)c(Br)cc4c23)CCC1 [Compound 8p],,"IC50 (Table 18, read-out: PARP IC50): 20 nM"
O=C(O)C(=O)c1ccc2[nH]c3c4c(c5c(c3c2c1)C(=O)NC5=O)CCC4 [Compound 2bb],5 nM,
CN(CCc1ccccn1)C(=O)c1ccc2[nH]c3c4c(c5c(c3c2c1)C(=O)NC5=O)CCC4 [Compound 2cw],24 nM,
CC(C)C(=O)NCc1nc(-c2ccc3[nH]c4c5c(c6c(c4c3c2)C(=O)NC6=O)CCC5)cs1 [Compound 3t],32 nM,
CC(C)NCc1ccc2[nH]c3c4c(c5c(c3c2c1)C(=O)NC5=O)CCC4 [Compound 2br],25 nM,
Cc1sc(N)nc1-c1ccc2[nH]c3c4c(c5c(c3c2c1)C(=O)NC5=O)CCC4 [Compound 3d],50 nM,
"N#Cc1ccc2[nH]c3c4c(c5c(c3c2c1)C(=O)NC5=O)CCC4 [Compound 2o, 3-Cyano-5,7,8,9,10,11-hexahydrocyclopent[a]pyrrolo[3,4-c]carbazole-5(6H), 7-dione]",14 nM,
CC(C)(C)OC(=O)N[C@@H](CCCNc1nc(-c2ccc3[nH]c4c5c(c6c(c4c3c2)C(=O)NC6=O)CCC5)cs1)C(=O)OC(C)(C)C [Compound 3e],46 nM,
COc1cnc2[nH]c3c4c(c5c(c3c2c1)C(=O)NC5=O)CCC4 [Compound 8w],,"IC50 (Table 18, read-out: PARP IC50): 4 nM"
COC(=O)C1CCCN1CC(=O)c1ccc2[nH]c3c4c(c5c(c3c2c1)C(=O)NC5=O)CCC4 (stereo not shown) [Compound 4a],12 nM,
O=C1NC(=O)c2c1c1c(c3[nH]c4ccc(COCCc5ccccn5)cc4c23)CCC1 [Compound 2df],104 nM,
O=C(NCCc1ccccn1)c1ccc2[nH]c3c4c(c5c(c3c2c1)C(=O)NC5=O)CCC4 [Compound 2cv],18 nM,
O=C1NC(=O)c2c1c1c(c3[nH]c4ccc(CN5CCCC5)cc4c23)CCC1 [Compound 2bw],35 nM,
"NCC(=O)NCc1ccc2[nH]c3c4c(c5c(c3c2c1)C(=O)NC5=O)CCC4 [Compound 2x, 3-(N-(2-(Amino)acetyl)aminomethyl)-5,7,8,9,10,11-hexahydrocyclopent[a]pyrrolo[3,4-c]carbazole-5(6H), 7-dione]",45 nM,
O=C(CBr)c1ccc2[nH]c3c4c(c5c(c3c2c1)C(=O)NC5=O)CCC4 [Compound 2e],,"IC50 (PARP IC50 (nM), Table 2): 13 nM"
O=C(CCC(=O)N1CCCC1C(=O)O)c1ccc2[nH]c3c4c(c5c(c3c2c1)C(=O)NC5=O)CCC4 (stereo not shown) [Compound 4j],2 nM,
O=C(NCCN1CCCCC1)c1ccc2[nH]c3c4c(c5c(c3c2c1)C(=O)NC5=O)CCC4 [Compound 2cm],148 nM,
"O=C1NC(=O)c2c1c1c(c3[nH]cc(Br)c23)CCC1 [Compound 8c, 3-Bromo-1,6,7,8-tetrahydrocyclopent[g]indole-4,5-dicarboxylate imide]",,"IC50 (Table 4, read-out: PARP IC50): 5 nM"
CC(=O)Oc1ccc2[nH]c3c4c(c5c(c3c2c1)C(=O)NC5=O)CCC4 [Compound 2au],33 nM,
O=C(CN1CCCC1C(=O)O)c1ccc2[nH]c3c4c(c5c(c3c2c1)C(=O)NC5=O)CCC4 (stereo not shown) [Compound 4c],7 nM,
CCCN(CCC)Cc1ccc2[nH]c3c4c(c5c(c3c2c1)C(=O)NC5=O)CCC4 [Compound 2bl],16 nM,
